Data reported in patent US10214531B2 (Institute for Drug Discovery, LLC, priority 2013, dated 2019).
Counter-ions that a name gives are not always drawn.

target: recombinant human AMCase (Homo sapiens, UniProt Q9BZP6); assay: Human AMCase Activity Assay; format: biochemical; conditions: recombinant hAMCase, 4-methylumbelliferyl chitobioside substrate, citrate buffer pH 5.2, 37° C., 60 minutes; read-out: Activity (IC50 value key)
Procedure, shortened: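 Recombinant human enzyme with fluorogenic 4-methylumbelliferyl β-D-N,N′-diacetylchitobioside substrate in citrate buffer, pH 5.2, 60 min at 37 °C in the dark with shaking. Read-out is 4MU fluorescence at 460 nm.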

Sequence of recombinant human AMCase (Q9BZP6 22-476): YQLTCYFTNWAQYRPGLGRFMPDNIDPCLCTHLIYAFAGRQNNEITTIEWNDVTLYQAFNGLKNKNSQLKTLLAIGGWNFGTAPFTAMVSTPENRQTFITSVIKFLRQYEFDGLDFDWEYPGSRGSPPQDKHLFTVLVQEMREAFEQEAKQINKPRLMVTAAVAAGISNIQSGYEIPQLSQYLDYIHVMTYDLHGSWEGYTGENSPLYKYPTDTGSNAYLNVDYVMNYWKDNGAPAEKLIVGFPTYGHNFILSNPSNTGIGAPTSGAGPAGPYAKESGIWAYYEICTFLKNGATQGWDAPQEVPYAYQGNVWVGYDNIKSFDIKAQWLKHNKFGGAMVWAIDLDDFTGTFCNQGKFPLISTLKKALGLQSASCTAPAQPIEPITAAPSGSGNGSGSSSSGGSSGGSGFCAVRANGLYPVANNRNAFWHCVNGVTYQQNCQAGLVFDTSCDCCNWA

Q: How did the IC50 turn out when `Nc1n[nH]c(N2CCC(NS(=O)(=O)Cc3cccc(Br)c3)CC2)n1` [Example 191, N-(1-(3-amino-1H-1,2,4-triazol-5-yl)piperidin-4-yl)-1-(3-bromophenyl)methanesulfonamide] was run?
A: 1 to 10 µM

Q: How did the IC50 turn out when `CC(C)(O)CCC1CN(c2nc(N)n[nH]2)CCN1CCCc1ccc(Br)cc1` (stereo not shown) [Example 229, 4-(4-(3-amino-1H-1,2,4-triazol-5-yl)-1-(3-(4-bromophenyl)propyl)piperazin-2-yl)-2-methylbutan-2-ol] was run?
A: 1 to 10 µM

Q: `Nc1n[nH]c(N2CCN(C(=O)CC(N)c3ccc(F)cc3)CC2)n1` (stereo not shown) [Example 215, 3-amino-1-(4-(3-amino-1H-1,2,4-triazol-5-yl)piperazin-1-yl)-3-(4-fluorophenyl)propan-1-one dihydrochloride] was tested. Which IC50 did it give?
A: > 100 µM

Q: Which IC50 does the source give for `CC(Cc1ccc(Cl)cc1)N(Cc1ccccc1)C1CCN(c2nc(N)n[nH]2)CC1` (stereo not shown) [Example 159, 1-(3-amino-1H-1,2,4-triazol-5-yl)-N-benzyl-N-(1-(4-chlorophenyl)propan-2-yl)piperidin-4-amine dihydrochloride] here?
A: < 0.1 µM

Q: Which IC50 does the source give for `Cc1ccc(OC(C)C(=O)N2CCN(c3nc(N)n[nH]3)CC2)c(C)c1` (stereo not shown) [Example 35, 1-(4-(3-amino-1H-1,2,4-triazol-5-yl)piperazin-1-yl)-2-(2,4-dimethylphenoxy)propan-1-one] here?
A: > 100 µM

Q: `CN(CCc1c(Cl)cccc1Cl)C1CCN(c2nc(N)n[nH]2)CC1` [Example 184, 1-(3-amino-1H-1,2,4-triazol-5-yl)-N-(2,6-dichlorophenethyl)-N-methylpiperidin-4-amine] was tested. Which IC50 did it give?
A: 1 to 10 µM

Q: `Cc1ccccc1C(=O)NCC1CCN(c2nc(N)n[nH]2)CC1` [Example 212, N-((1-(3-amino-1H-1,2,4-triazol-5-yl)piperidin-4-yl)methyl)-2-methylbenzamide] was tested. Which IC50 did it give?
A: > 100 µM

Q: For `Nc1n[nH]c(N2CCC(CNC(=O)c3cc(Cl)cc(Cl)c3)CC2)n1` [Example 243, N-((1-(3-amino-1H-1,2,4-triazol-5-yl)piperidin-4-yl)methyl)-3,5-dichlorobenzamide], which IC50 is on record?
A: > 100 µM

Q: Which IC50 does the source give for `Nc1n[nH]c(N2CCC(N(CCc3ccc(Cl)cc3)Cc3ccc(Cl)c(C(F)(F)F)c3)CC2)n1` [Example 126, 1-(3-amino-1H-1,2,4-triazol-5-yl)-N-(4-chloro-3-(trifluoromethyl)benzyl)-N-(4-chlorophenethyl)piperidin-4-amine] here?
A: < 0.1 µM

Q: How did the IC50 turn out when `Nc1n[nH]c(N2CCC(N(CCc3ccc(Br)cc3)Cc3ccccc3Cl)CC2)n1` [Example 98, 1-(3-amino-1H-1,2,4-triazol-5-yl)-N-(4-bromophenethyl)-N-(2-chlorobenzyl) piperidin-4-amine] was run?
A: < 0.1 µM

Q: How did the IC50 turn out when `COc1ccc(CNC(=O)C2CCN(c3nc(N)n[nH]3)CC2)c(OC)c1` [Example 201, 1-(3-amino-1H-1,2,4-triazol-5-yl)-N-(2,4-dimethoxybenzyl)piperidine-4-carboxamide] was run?
A: > 100 µM

Q: `CN(C)c1ccc(CCN(C)C2CCN(c3nc(N)n[nH]3)CC2)cc1` [Example 178, 1-(3-amino-1H-1,2,4-triazol-5-yl)-N-(4-(dimethylamino)phenethyl)-N-methylpiperidin-4-amine] was tested. Which IC50 did it give?
A: 10 to 100 µM

Q: Which IC50 does the source give for `Nc1n[nH]c(N2CCN(C(=O)COc3ccc(Cl)cc3)CC2)n1` [Example 24, 1-(4-(3-amino-1H-1,2,4-triazol-5-yl)piperazin-1-yl)-2-(4-chlorophenoxy)-ethanone] here?
A: > 100 µM

Q: Which IC50 does the source give for `CN(CCc1cccnc1)C1CCN(c2nc(N)n[nH]2)CC1` [Example 131, 1-(3-amino-1H-1,2,4-triazol-5-yl)-N-methyl-N-(2-(pyridin-3-yl)ethyl)piperidin-4-amine dihydrochloride] here?
A: 10 to 100 µM

Q: For `Nc1n[nH]c(N2CCC(CNCc3ccc(Cl)c(Cl)c3)CC2)n1` [Example 252, 5-(4-(((3,4-dichlorobenzyl)amino)methyl)piperidin-1-yl)-1H-1,2,4-triazol-3-amine dihydrochloride], which IC50 is on record?
A: > 100 µM

Q: `Nc1n[nH]c(N2CCN(C(=O)[C@H](O)Cc3ccc(Cl)cc3)CC2)n1` [Example 72, (R)-1-(4-(3-amino-1H-1,2,4-triazol-5-yl)piperazin-1-yl)-3-(4-chlorophenyl)-2-hydroxypropan-1-one] was tested. Which IC50 did it give?
A: > 100 µM

Q: For `CN(CCc1ccc(Cl)cc1)C1(CCCO)CCN(c2nc(N)n[nH]2)CC1` [Example 245, 3-(1-(3-amino-1H-1,2,4-triazol-5-yl)-4-((4-chlorophenethyl)(methyl)amino)piperidin-4-yl)propan-1-ol], which IC50 is on record?
A: 1 to 10 µM

Q: `Nc1n[nH]c(N2CCC(CNC(=O)c3ccc(F)cc3F)CC2)n1` [Example 213, N-((1-(3-amino-1H-1,2,4-triazol-5-yl)piperidin-4-yl)methyl)-2,4-difluorobenzamide] was tested. Which IC50 did it give?
A: > 100 µM

Q: Which IC50 does the source give for `Nc1n[nH]c(N2CCC(CC(=O)Nc3ccc(Br)cc3)CC2)n1` [Example 70, 2-(1-(3-amino-1H-1,2,4-triazol-5-yl)piperidin-4-yl)-N-(4-bromophenyl)acetamide] here?
A: > 100 µM

Q: How did the IC50 turn out when `Nc1n[nH]c(N2CCC(NC(=O)Nc3ccc(F)c(F)c3)CC2)n1` [Example 68, 1-(1-(3-amino-1H-1,2,4-triazol-5-yl)piperidin-4-yl)-3-(3,4-difluorophenyl)urea] was run?
A: > 100 µM

Q: How did the IC50 turn out when `Nc1n[nH]c(N2CCC(C(=O)NCc3ccccc3Br)CC2)n1` [Example 53, 1-(3-amino-1H-1,2,4-triazol-5-yl)-N-(2-bromobenzyl)piperidine-4-carboxamide] was run?
A: > 100 µM

Q: Which IC50 does the source give for `Cc1cccc(OC(C)C(=O)N2CCN(c3nc(N)n[nH]3)CC2)c1` (stereo not shown) [Example 36, 1-(4-(3-amino-1H-1,2,4-triazol-5-yl)piperazin-1-yl)-2-(m-tolyloxy)propan-1-one] here?
A: > 100 µM

Q: How did the IC50 turn out when `COc1ccccc1CNC(=O)C1CCN(c2nc(N)n[nH]2)CC1` [Example 197, 1-(3-amino-1H-1,2,4-triazol-5-yl)-N-(2-methoxybenzyl)piperidine-4-carboxamide] was run?
A: > 100 µM

Q: With `Cc1ccc(C)c(CNC(=O)C2CCN(c3nc(N)n[nH]3)CC2)c1` [Example 204, 1-(3-amino-1H-1,2,4-triazol-5-yl)-N-(2,5-dimethylbenzyl)piperidine-4-carboxamide] as the molecule, how does the IC50 read?
A: > 100 µM

Q: For `Nc1n[nH]c(N2CCC(CNC(=O)c3cccc(Br)c3)CC2)n1` [Example 69, N-((1-(3-amino-1H-1,2,4-triazol-5-yl)piperidin-4-yl)methyl)-3-bromo benzamide], which IC50 is on record?
A: > 100 µM

Q: With `COc1ccc(CNC(=O)C2CCN(c3nc(N)n[nH]3)CC2)cc1` [Example 206, 1-(3-amino-1H-1,2,4-triazol-5-yl)-N-(4-methoxybenzyl)piperidine-4-carboxamide] as the molecule, how does the IC50 read?
A: > 100 µM

Q: With `Nc1n[nH]c(N2CCN(CCOc3ccccc3Cl)CC2)n1` [Example 79, 5-(4-(2-(2-chlorophenoxy)ethyl)piperazin-1-yl)-1H-1,2,4-triazol-3-amine] as the molecule, how does the IC50 read?
A: 10 to 100 µM

Q: How did the IC50 turn out when `CN(C1CCN(c2nc(N)n[nH]2)CC1)[C@H](CO)Cc1ccc(Cl)cc1` [Example 153, (S)-2-((1-(3-amino-1H-1,2,4-triazol-5-yl)piperidin-4-yl)(methyl)amino)-3-(4-chlorophenyl)propan-1-ol] was run?
A: 0.1 to 1 µM

Q: With `Nc1n[nH]c(N2CCC(N(CCc3ccc(Br)cc3)Cc3ccc(F)c4ccccc34)CC2)n1` [Example 167, 1-(3-amino-1H-1,2,4-triazol-5-yl)-N-(4-bromophenethyl)-N-((4-fluoronaphthalen-1-yl)methyl)piperidin-4-amine] as the molecule, how does the IC50 read?
A: < 0.1 µM

Q: Which IC50 does the source give for `COc1cccc(CCN(C)C2CCN(c3nc(N)n[nH]3)CC2)c1OC` [Example 177, 1-(3-amino-1H-1,2,4-triazol-5-yl)-N-(2,3-dimethoxyphenethyl)-N-methylpiperidin-4-amine] here?
A: 10 to 100 µM

Q: How did the IC50 turn out when `Nc1n[nH]c(N2CCN(C(=O)c3cc4ccccc4o3)CC2)n1` [Example 48, (4-(3-amino-1H-1,2,4-triazol-5-yl)piperazin-1-yl)(benzofuran-2-yl)methanone] was run?
A: > 100 µM

Q: For `CC(=O)NC(CC(=O)N1CCN(c2nc(N)n[nH]2)CC1)c1cccc(F)c1` (stereo not shown) [Example 222, N-(3-(4-(3-amino-1H-1,2,4-triazol-5-yl)piperazin-1-yl)-1-(3-fluorophenyl)-3-oxopropyl)acetamide], which IC50 is on record?
A: > 100 µM

Q: How did the IC50 turn out when `CS(=O)(=O)c1ccc(-c2noc(C3CCN(c4nc(N)n[nH]4)CC3)n2)cc1` [Example 42, 5-(4-(3-(4-(methylsulfonyl)phenyl)-1,2,4-oxadiazol-5-yl)piperidin-1-yl)-1H-1,2,4-triazol-3-amine] was run?
A: > 100 µM

Q: Which IC50 does the source give for `C[C@H](CN1CCN(c2nc(N)n[nH]2)CC1)Oc1ccc(Cl)cc1` [Example 64, (R)-5-(4-(2-(4-chlorophenoxy)propyl)piperazin-1-yl)-1H-1,2,4-triazol-3-amine] here?
A: 10 to 100 µM

Q: With `Nc1n[nH]c(N2CCC(CNC(=O)c3cc(Br)cc(Br)c3)CC2)n1` [Example 209, N-((1-(3-amino-1H-1,2,4-triazol-5-yl)piperidin-4-yl)methyl)-3,5-dibromobenzamide] as the molecule, how does the IC50 read?
A: > 100 µM

Q: How did the IC50 turn out when `Nc1n[nH]c(N2CCN(CCOc3cccc(Cl)c3)CC2)n1` [Example 86, 5-(4-(2-(3-chlorophenoxy)ethyl)piperazin-1-yl)-1H-1,2,4-triazol-3-amine] was run?
A: 10 to 100 µM

Q: With `Nc1n[nH]c(N2CCC(C(=O)NCc3ccc(F)cc3)CC2)n1` [Example 49, 1-(3-amino-1H-1,2,4-triazol-5-yl)-N-(4-fluorobenzyl)piperidine-4-carboxamide] as the molecule, how does the IC50 read?
A: > 100 µM

Q: For `COc1ccc(CN(CCc2ccc(Cl)cc2)C2CCN(c3nc(N)n[nH]3)CC2)cc1` [Example 152, 1-(3-amino-1H-1,2,4-triazol-5-yl)-N-(4-chlorophenethyl)-N-(4-methoxybenzyl)piperidin-4-amine], which IC50 is on record?
A: < 0.1 µM

Q: With `CC1CN(c2nc(N)n[nH]2)CCC1N(C)CCc1ccc(Cl)cc1` (stereo not shown) [Example 154, 1-(3-amino-1H-1,2,4-triazol-5-yl)-N-(4-chlorophenethyl)-N,3-dimethylpiperidin-4-amine dihydrochloride] as the molecule, how does the IC50 read?
A: 0.1 to 1 µM

Q: Which IC50 does the source give for `COc1ccccc1CCN(C)C1CCN(c2nc(N)n[nH]2)CC1` [Example 172, 1-(3-amino-1H-1,2,4-triazol-5-yl)-N-(2-methoxyphenethyl)-N-methylpiperidin-4-amine] here?
A: 10 to 100 µM
